Read-outs that look alike come from different tables or passages of the source.
Legend:
test subject [1] = experiment: Bicycle ergometer test at 100 W: antagonism between inactive (1st dosage) and active (2nd dosage) substances (Example 1b); assay type: in vivo, human; conditions: for Average heart rate after 1st dosage: 10-minute test at 100 W; for Average heart rate before: 10-minute control test at 100 W before the 1st dosage; for Change in the oxygen consumption after 2nd dosage: relative to after 1st dosage
Experimental: (§1) 13 to Mar. 6, 1999, with a subject in good physical condition under standard conditions. The subject was required each morning in the fasting state to perform successively (without interruption) at mechanical power output of 100 W, 125 W and 150 W, each lasting 10 minutes (total test duration 30 minutes each time). […] The heat production induced by mechanical exertion was calculated from the changes in the heart rate. An alternative possibility is also to determine it on the basis of the increase in humidity caused by the perspiration (the tests are carried out in a closed room) or reduction in weight (1 g of water=2.26 kJ). […] The values indicated in table la for the “average heart rate” are in each case averages over the 30-minute duration of the test; relative values for the oxygen consumption were established on the basis of the heart rates in a known manner, and the relative values indicated in Table 1a are based on the oxygen consumption on the first day (=100%); the values listed in the column “heat production” in Table 1a give the percentage deviation of the heat production, established on the basis of the perspiration, from the average from all the tests.
(§2) It is known that the oxygen uptake can be determined by measuring the heart rate as a function of the mechanical exertion. This ergometric method is based on establishing the oxygen transport volume through the action of the heart. Since the stroke volume is essentially constant irrespective of the intensity of the mechanical work, and the increased oxygen demand caused by the increase in work results in an increase in the heart rate, the quantity of the transported oxygen can be established by determining the additional heartbeats caused by the work. A 3-stage ergometer as recommended by the World Health Organization (WHO) is used in physiology research institutes and fitness clubs around the world.

[2] = Oxygen-sparing action during physical work, general findings in the description; assay type: in vivo; conditions: result in words; for Oxygen demand after administration: even occasionally increased
test subject [3] = assay type: in vivo, human; conditions: Homo sapiens, 10 min
test subject [4] = experiment: Bicycle ergometer test at 100 W: active ingredient, sucrose, further active ingredient, amino acid/vitamin product (Example 1c); assay type: in vivo, human; conditions: for Change in oxygen consumption after 2nd dos.: 2nd dosage 2.5 g of sucrose; for Change in oxygen consumption after 2nd dos. / Change in oxygen consumption after 4th dos. / Change in oxygen consumption after 3rd dos.: relative to preceding dosage; for Change in oxygen consumption after 4th dos.: 4th dosage Na glutamate/folic acid/cyanocobalamin/gelatin; for Average heart rate after 1st dos.: 10-minute test at 100 W
test subject [5] = experiment: as above; assay type: in vivo, human; conditions: for Average heart rate after 4th dos.: 4th dosage 100 mg of Na glutamate, 0.3 mg of folic acid, 5 μg of cyanocobalamin in 10 mg of gelatin; for Average heart rate after 2nd dos.: then 2nd dosage 2.5 g of sucrose
Experimental: as §1, §2

[6] = 1st dosage 10 mg in 20 ml of water
[7] = Homo sapiens, 1st dosage 10 mg, 100 W, read-out: Change in the oxygen consumption after 1st dosage
[8] = read-out: Change in the oxygen demand
[9] = read-out: Heat production (deviation from the average of all the tests)
[10] = 1st dosage 1 mg as dilute aqueous solution
[11] = 3rd dosage further 1 mg of active ingredient
[12] = 3rd dosage further 1 mg of active ingredient after sucrose
[13] = after 1 mg of active ingredient
[14] = 2nd dosage 1 mg, after 50 mg of opipramol, 100 W
[15] = 2nd dosage 1 mg, after 1st dosage of 50 mg of opipramol, 100 W

## Cl.Cl.OCCN1CCN(CCC=C2c3ccccc3Sc3ccc(C(F)(F)F)cc32)CC1 (mixture of isomers) [flupentixol]
Test subject [1]; 1st dosage 0.5 mg in 20 ml of water
  Average heart rate after 1st dosage: 118.4 per minute
Test subject [1]; 1st dosage 0.5 mg, 100 W
  Change in the oxygen consumption after 1st dosage: +32%
Test subject [1]
  Average heart rate before: 102.6 per minute
[2]
  Oxygen demand after administration: not reduced

## CN(C)CCC=C1c2ccccc2CCc2ccccc21 [amitriptyline]
Test subject [1]; [6]
  Average heart rate after 1st dosage: 119.3 per minute
Test subject [1]; [7]
  change in vivo at 10 mg: 71%
[2]
  Oxygen demand after administration: not reduced

## O=C1CN=C(c2ccccn2)c2cc(Br)ccc2N1 [bromazepam]
Test subject [3]; [8]
  change in vivo at 1 mg: 0%
Test subject [3]; [9]
  change in vivo at 1 mg: 6%
Test subject [1]; 1st dosage 3 mg in 20 ml of water
  Average heart rate after 1st dosage: 129.3 per minute
Test subject [1]; Homo sapiens, 1st dosage 3 mg, 100 W, read-out: Change in the oxygen consumption after 1st dosage
  change in vivo at 3 mg: 23%
[2]
  Oxygen demand after administration: not reduced

## CCOC(=O)n1ccn(C)c1=S [carbimazole]
[2]
  Suitability for reducing the oxygen consumption during physical work: suitable

## CNC1=Nc2ccc(Cl)cc2C(c2ccccc2)=[N+]([O-])C1 [chlordiazepoxide]
Test subject [3]; [8]
  change in vivo at 1 mg: 0%
Test subject [3]; [9]
  change in vivo at 1 mg: 14%
Test subject [1]; 1st dosage 5 mg in 20 ml of water
  Average heart rate after 1st dosage: 126.4 per minute
Test subject [1]; Homo sapiens, 1st dosage 5 mg, 100 W, read-out: Change in the oxygen consumption after 1st dosage
  change in vivo at 5 mg: 29%

## CN(C)CC/C=C1/c2ccccc2Sc2ccc(Cl)cc21 [chlorprothixen, chlorprothixene]
Test subject [1]; [6]
  Average heart rate after 1st dosage: 124.6 per minute
Test subject [1]; 1st dosage 10 mg, 100 W
  Change in the oxygen consumption after 1st dosage: +46%
Test subject [1]
  Average heart rate before: 101.7 per minute
[2]
  Oxygen demand after administration: not reduced

## CN1CCC[C@@H]1CCO[C@](C)(c1ccccc1)c1ccc(Cl)cc1 [clemastine]
[2]
  Suitability for reducing the oxygen consumption during physical work: suitable

## CN1C(=O)CC(=O)N(c2ccccc2)c2cc(Cl)ccc21 [clobazam]
Test subject [3]; [8]
  change in vivo at 1 mg: -51%
Test subject [3]; [9]
  change in vivo at 1 mg: -49%

## CN(C)CCCN1c2ccccc2CCc2ccc(Cl)cc21 [clomipramine]
Test subject [1]; 1st dosage 25 mg in 20 ml of water
  Average heart rate after 1st dosage: 134.8 per minute
Test subject [1]; Homo sapiens, 1st dosage 25 mg, 100 W, read-out: Change in the oxygen consumption after 1st dosage
  change in vivo at 25 mg: 42%
[2]
  Oxygen demand after administration: not reduced

## CN1CCN(C2=Nc3ccccc3Sc3ccc(Cl)cc32)CC1 [clothiapine]
Test subject [4]; 1 mg series
  Change in oxygen consumption after 2nd dos.: +78%
  Change in oxygen consumption after 4th dos.: −63%
Test subject [4]; [10]
  Average heart rate after 1st dos.: 73.2 per minute
Test subject [4]; [11]
  Change in oxygen consumption after 3rd dos.: +3%
Test subject [5]; 1 mg series
  Average heart rate after 4th dos.: 82.2 per minute
Test subject [5]; [12]
  Average heart rate after 3rd dos.: 113.9 per minute
Test subject [5]; [13]
  Average heart rate after 2nd dos.: 112.4 per minute
Test subject [1]; 2nd dosage 1 mg, after 25 mg of clomipramine, 100 W
  Change in the oxygen consumption after 2nd dosage: −70%
Test subject [1]; [14]
  Change in the oxygen consumption after 2nd dosage: −65%
Test subject [1]; 2nd dosage 1 mg, after 1st dosage of 25 mg of clomipramine, 100 W
  Average heart rate after 2nd dosage: 100.0 per minute
Test subject [1]; [15]
  Average heart rate after 2nd dosage: 88.9 per minute
[2]
  Suitability for reducing the oxygen consumption during physical work: suitable

## CN1CCC(=C2c3ccccc3C=Cc3ccccc32)CC1 [cyproheptadine]
Test subject [4]; 0.2 mg series
  Change in oxygen consumption after 2nd dos.: +69%
  Change in oxygen consumption after 4th dos.: −45%
Test subject [4]; 1st dosage 0.2 mg as dilute aqueous solution
  Average heart rate after 1st dos.: 74.7 per minute
Test subject [4]; 3rd dosage further 0.2 mg of active ingredient
  Change in oxygen consumption after 3rd dos.: −5%
Test subject [5]; 0.2 mg series
  Average heart rate after 4th dos.: 83.9 per minute
Test subject [5]; 3rd dosage further 0.2 mg of active ingredient after sucrose
  Average heart rate after 3rd dos.: 106.4 per minute
Test subject [5]; after 0.2 mg of active ingredient
  Average heart rate after 2nd dos.: 109.1 per minute
Test subject [1]; 2nd dosage 0.2 mg, after 5 mg of chlordiazepoxide, 100 W
  Change in the oxygen consumption after 2nd dosage: −76%
Test subject [1]; 2nd dosage 0.2 mg, after 10 mg of amitriptyline, 100 W
  Change in the oxygen consumption after 2nd dosage: −63%
Test subject [1]; 2nd dosage 0.2 mg, after 1st dosage of 5 mg of chlordiazepoxide, 100 W
  Average heart rate after 2nd dosage: 88.5 per minute
Test subject [1]; 2nd dosage 0.2 mg, after 1st dosage of 10 mg of amitriptyline, 100 W
  Average heart rate after 2nd dosage: 87.6 per minute

## CN(C)CCN1C(=O)c2ccccc2N(C)c2ccccc21 [dibenzepin]
Test subject [4]; 1 mg series
  Change in oxygen consumption after 2nd dos.: +69%
  Change in oxygen consumption after 4th dos.: −57%
Test subject [4]; [10]
  Average heart rate after 1st dos.: 77.2 per minute
Test subject [4]; [11]
  Change in oxygen consumption after 3rd dos.: 0%
Test subject [5]; 1 mg series
  Average heart rate after 4th dos.: 86.4 per minute
Test subject [5]; [12]
  Average heart rate after 3rd dos.: 115 per minute
Test subject [5]; [13]
  Average heart rate after 2nd dos.: 111.5 per minute
Test subject [1]; [14]
  Change in the oxygen consumption after 2nd dosage: −59%
Test subject [1]; [15]
  Average heart rate after 2nd dosage: 88.3 per minute
[2]
  Suitability for reducing the oxygen consumption during physical work: suitable

## COc1ccc2c3c1O[C@H]1[C@@H](O)CC[C@H]4[C@@H](C2)N(C)CC[C@@]341 [dihydrocodeine]
[2]
  Suitability for reducing the oxygen consumption during physical work: suitable

## CN(C)CCOC(C)(c1ccccc1)c1ccccn1 (stereo not shown) [doxylamine]
[2]
  Oxygen demand after administration: not reduced

## CN1C(=O)CN=C(c2ccccc2F)c2cc([N+](=O)[O-])ccc21 [flunitrazepam]
Test subject [3]; [8]
  change in vivo at 1 mg: -39%
Test subject [3]; [9]
  change in vivo at 1 mg: -40%
[2]
  Suitability for reducing the oxygen consumption during physical work: suitable

## O=C1Nc2ccc(Cl)cc2C(c2ccccc2Cl)=NC1O (stereo not shown) [lorazepam]
Test subject [1]; 1st dosage 1 mg in 20 ml of water
  Average heart rate after 1st dosage: 121.5 per minute
Test subject [1]; Homo sapiens, 1st dosage 1 mg, 100 W, read-out: Change in the oxygen consumption after 1st dosage
  change in vivo at 1 mg: 34%
[2]
  Oxygen demand after administration: not reduced

## CN1CC[C@]23c4c5ccc(O)c4O[C@H]2[C@@H](O)C=C[C@H]3[C@H]1C5 [morphine]
[2]
  Suitability for reducing the oxygen consumption during physical work: suitable

## O=C1CN=C(c2ccccc2)c2cc([N+](=O)[O-])ccc2N1 [nitrazepam]
Test subject [3]; [8]
  change in vivo at 1 mg: 0%
Test subject [3]; [9]
  change in vivo at 1 mg: 7%
Test subject [1]; [6]
  Average heart rate after 1st dosage: 131.4 per minute
Test subject [1]; [7]
  change in vivo at 10 mg: 21%
[2]
  Oxygen demand after administration: not reduced

## COc1ccc2c(c1OC)C(=O)O[C@@H]2[C@H]1c2c(cc3c(c2OC)OCO3)CCN1C [noscapine]
[2]
  Suitability for reducing the oxygen consumption during physical work: suitable

## OCCN1CCN(CCCN2c3ccccc3C=Cc3ccccc32)CC1 [opipramol]
[2]
  Oxygen demand after administration: not reduced

## O=C1Nc2ccc(Cl)cc2C(c2ccccc2)=NC1O (stereo not shown) [oxazepam]
Test subject [3]; [8]
  change in vivo at 1 mg: 0%
Test subject [3]; [9]
  change in vivo at 1 mg: 7%
Test subject [1]; Homo sapiens, 1st dosage 7 mg, 100 W, read-out: Change in the oxygen consumption after 1st dosage
  change in vivo at 7 mg: 33%

## CSc1ccc2c(c1)N(CCC1CCCCN1C)c1ccccc1S2 (stereo not shown) [thioridazine]
Test subject [4]; 1 mg series
  Change in oxygen consumption after 2nd dos.: +69%
  Change in oxygen consumption after 4th dos.: −49%
Test subject [4]; [10]
  Average heart rate after 1st dos.: 76.3 per minute
Test subject [4]; [11]
  Change in oxygen consumption after 3rd dos.: 0%
Test subject [5]; 1 mg series
  Average heart rate after 4th dos.: 86.5 per minute
Test subject [5]; [12]
  Average heart rate after 3rd dos.: 111.2 per minute
Test subject [5]; [13]
  Average heart rate after 2nd dos.: 111.0 per minute
Test subject [1]; 2nd dosage 1 mg, after 10 mg of imipramine, 100 W
  Change in the oxygen consumption after 2nd dosage: −56%
Test subject [1]; 2nd dosage 1 mg, after 1st dosage of 10 mg of imipramine, 100 W
  Average heart rate after 2nd dosage: 81.5 per minute
[2]
  Suitability for reducing the oxygen consumption during physical work: suitable

## CN1CCN(C(=O)OC2c3nccnc3C(=O)N2c2ccc(Cl)cn2)CC1 (stereo not shown) [zopiclone]
Test subject [3]; [9]
  change in vivo at 1 mg: -44%
[2]
  Suitability for reducing the oxygen consumption during physical work: suitable
